Test results from publication PMC5961012 (Journal of Antimicrobial Chemotherapy, 2018).

Biological target: T1, AceR (Acinetobacter baumannii, UniProt P0DUU5)
T1 sequence (P0DUU5 84-297): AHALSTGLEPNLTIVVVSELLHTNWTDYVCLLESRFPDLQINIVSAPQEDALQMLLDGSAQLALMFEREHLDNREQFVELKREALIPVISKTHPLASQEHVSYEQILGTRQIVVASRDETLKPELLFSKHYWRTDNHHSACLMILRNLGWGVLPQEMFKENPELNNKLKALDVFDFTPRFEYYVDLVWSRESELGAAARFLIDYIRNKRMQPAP
Experiment: SPR
Format: binding

[H]/N=C(\N/C(=N/[H])NCCCCCCNC(=N)NC(=N)Nc1ccc(Cl)cc1)Nc1ccc(Cl)cc1 [chlorhexidine]
Kd: 62.3 µM
